Measurements taken from paper PMC11792831, “Design and synthesis of doublecortin-like kinase 1 inhibitors and their bioactivity evaluation” (Journal of Enzyme Inhibition and Medicinal Chemistry, 2023).
pIC50: −log10 of the molar value.

What was measured:
DCLK1 = target: T1, DCLK1 (Homo sapiens, UniProt O15075); experiment: In vitro DCLK1 kinase activity assay (Eurofins); format: biochemical; details: for Selectivity (IC50 of DCLK1/IC50 of LRRK2): ratio of IC50 values; for Selectivity (DCLK1 activity/LRRK2 activity): ratio of remaining activities at 1 uM; for pIC50: read-out: IC50 of DCLK1; for activity at 1 µM: remaining kinase activity at 1 uM compound, 100% = no inhibition, 0% = complete inhibition, read-out: DCLK1 activity (%)
T1 construct: purchased Eurofins (Belgium), contract assay service
T1 sequence (O15075 1-740): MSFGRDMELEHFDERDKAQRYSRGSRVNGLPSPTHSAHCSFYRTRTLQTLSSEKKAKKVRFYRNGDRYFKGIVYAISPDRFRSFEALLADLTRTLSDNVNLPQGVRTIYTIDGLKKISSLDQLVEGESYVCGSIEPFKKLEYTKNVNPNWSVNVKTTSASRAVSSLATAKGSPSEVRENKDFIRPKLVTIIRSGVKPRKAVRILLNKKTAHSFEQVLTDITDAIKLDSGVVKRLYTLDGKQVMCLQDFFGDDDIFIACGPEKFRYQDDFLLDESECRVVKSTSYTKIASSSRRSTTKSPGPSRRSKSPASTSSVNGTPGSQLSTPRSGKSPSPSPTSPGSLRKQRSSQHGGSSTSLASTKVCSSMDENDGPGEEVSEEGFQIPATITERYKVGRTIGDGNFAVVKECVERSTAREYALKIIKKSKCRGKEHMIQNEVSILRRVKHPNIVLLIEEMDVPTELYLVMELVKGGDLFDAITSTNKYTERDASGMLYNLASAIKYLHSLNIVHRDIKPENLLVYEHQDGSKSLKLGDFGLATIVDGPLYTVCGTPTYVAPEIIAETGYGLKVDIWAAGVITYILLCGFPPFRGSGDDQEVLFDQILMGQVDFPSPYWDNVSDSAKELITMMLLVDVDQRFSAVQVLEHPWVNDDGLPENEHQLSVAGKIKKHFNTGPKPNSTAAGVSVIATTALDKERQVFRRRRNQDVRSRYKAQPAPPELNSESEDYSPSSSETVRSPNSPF
Text: (§1) Eurofins (Belgium) conducted in vitro DCLK1 and LRRK2 kinase activity assays. Compounds were sent as dry powders to Eurofins.

LRRK2 = target: T2, LRRK2 (Homo sapiens, UniProt Q5S007); experiment: In vitro LRRK2 kinase activity assay (Eurofins); format: biochemical; details: for activity at 1 µM: remaining kinase activity at 1 uM compound, 100% = no inhibition, 0% = complete inhibition
T2 construct: purchased Eurofins (Belgium), contract assay service
T2 sequence (Q5S007 whole entry): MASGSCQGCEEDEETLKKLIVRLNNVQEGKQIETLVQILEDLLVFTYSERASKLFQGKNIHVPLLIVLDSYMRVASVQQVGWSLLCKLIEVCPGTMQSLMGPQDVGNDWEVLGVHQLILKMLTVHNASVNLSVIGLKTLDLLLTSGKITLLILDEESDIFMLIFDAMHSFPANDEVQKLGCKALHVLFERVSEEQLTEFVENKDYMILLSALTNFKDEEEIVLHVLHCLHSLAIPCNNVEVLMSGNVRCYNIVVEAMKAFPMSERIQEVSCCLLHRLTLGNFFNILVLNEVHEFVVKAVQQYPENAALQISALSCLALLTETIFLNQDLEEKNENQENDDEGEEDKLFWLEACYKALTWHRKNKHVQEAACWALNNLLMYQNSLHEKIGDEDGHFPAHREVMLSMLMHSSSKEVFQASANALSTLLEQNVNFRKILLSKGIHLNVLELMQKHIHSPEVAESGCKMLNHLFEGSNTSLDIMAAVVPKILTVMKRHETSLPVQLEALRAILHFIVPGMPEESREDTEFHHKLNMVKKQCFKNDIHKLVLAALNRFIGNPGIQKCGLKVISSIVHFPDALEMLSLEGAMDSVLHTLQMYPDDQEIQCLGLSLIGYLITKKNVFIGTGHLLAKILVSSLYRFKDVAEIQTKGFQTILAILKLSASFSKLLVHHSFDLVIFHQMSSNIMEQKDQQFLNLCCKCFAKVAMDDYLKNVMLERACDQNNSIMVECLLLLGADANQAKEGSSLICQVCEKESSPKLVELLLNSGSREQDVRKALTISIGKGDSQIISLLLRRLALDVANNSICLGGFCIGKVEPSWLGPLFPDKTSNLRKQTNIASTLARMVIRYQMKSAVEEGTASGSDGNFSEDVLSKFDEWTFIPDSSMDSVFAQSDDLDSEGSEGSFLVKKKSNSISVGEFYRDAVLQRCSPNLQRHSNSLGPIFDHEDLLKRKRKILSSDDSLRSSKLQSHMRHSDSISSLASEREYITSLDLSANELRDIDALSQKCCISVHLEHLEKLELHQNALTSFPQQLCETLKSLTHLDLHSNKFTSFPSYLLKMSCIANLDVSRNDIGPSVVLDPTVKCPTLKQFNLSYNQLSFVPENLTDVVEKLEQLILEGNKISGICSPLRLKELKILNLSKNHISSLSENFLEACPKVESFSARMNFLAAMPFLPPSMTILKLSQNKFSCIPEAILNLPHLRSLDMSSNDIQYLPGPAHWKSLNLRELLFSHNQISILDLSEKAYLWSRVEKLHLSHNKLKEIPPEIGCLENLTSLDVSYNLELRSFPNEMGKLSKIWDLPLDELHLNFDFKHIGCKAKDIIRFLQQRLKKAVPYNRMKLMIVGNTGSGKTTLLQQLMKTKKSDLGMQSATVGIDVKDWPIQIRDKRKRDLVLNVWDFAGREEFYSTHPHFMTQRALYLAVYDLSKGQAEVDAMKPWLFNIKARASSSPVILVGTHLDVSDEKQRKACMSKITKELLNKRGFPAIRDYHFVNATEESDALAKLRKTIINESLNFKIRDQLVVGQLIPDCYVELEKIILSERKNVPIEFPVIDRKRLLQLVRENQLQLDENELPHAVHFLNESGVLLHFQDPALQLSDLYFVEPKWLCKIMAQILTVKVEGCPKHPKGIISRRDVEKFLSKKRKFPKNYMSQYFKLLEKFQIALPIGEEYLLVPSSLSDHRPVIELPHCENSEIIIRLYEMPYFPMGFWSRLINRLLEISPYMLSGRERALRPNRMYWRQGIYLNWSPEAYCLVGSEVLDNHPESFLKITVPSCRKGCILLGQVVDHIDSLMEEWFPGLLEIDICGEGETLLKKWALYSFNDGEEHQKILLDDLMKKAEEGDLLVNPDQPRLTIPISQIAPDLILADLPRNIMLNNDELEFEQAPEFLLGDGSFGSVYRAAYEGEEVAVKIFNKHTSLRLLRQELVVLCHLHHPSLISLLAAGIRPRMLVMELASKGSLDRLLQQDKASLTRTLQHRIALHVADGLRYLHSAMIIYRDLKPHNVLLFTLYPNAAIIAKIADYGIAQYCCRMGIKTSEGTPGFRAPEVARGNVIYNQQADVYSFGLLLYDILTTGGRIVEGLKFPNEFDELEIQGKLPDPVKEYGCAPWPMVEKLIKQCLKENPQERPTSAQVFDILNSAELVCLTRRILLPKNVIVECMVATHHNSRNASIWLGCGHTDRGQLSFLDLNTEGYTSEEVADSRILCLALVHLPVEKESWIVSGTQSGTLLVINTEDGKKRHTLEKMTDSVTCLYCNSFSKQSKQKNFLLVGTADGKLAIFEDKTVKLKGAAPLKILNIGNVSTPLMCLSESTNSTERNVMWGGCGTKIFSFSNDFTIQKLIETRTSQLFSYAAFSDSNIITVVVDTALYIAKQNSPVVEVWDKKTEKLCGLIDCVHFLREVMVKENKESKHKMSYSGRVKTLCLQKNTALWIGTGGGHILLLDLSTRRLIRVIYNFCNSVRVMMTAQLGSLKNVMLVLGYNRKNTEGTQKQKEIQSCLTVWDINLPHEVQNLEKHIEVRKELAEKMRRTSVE
Method: All compounds were tested for their kinase inhibitory activity at the concentration of 1 μM. […] Compounds with high activity or good selectivity were selected for further IC50 determination (Table 2).
as §1

HCT116 = experiment: In vitro cytotoxicity / anti-proliferation assay (CCK8); format: cell-based; details: Homo sapiens, HCT-116, colorectal cancer cell line HCT116, 72 h
Method: To determine whether DCLK1 was required for tumour cell proliferation, the cytotoxicity of compounds was evaluated in colorectal cancer cell line HCT116. HCT116 was treated with compounds for 72 h, and the cell viability was determined using CCK8 assay (Figure 4). The antiproliferative effects of most compounds on HCT116 were correlated with their DCLK1 inhibitory activities, except for compounds D1 and D2. The poor cytotoxicity of compounds D1 and D2 may be attributed to their poor cell membrane permeability due to the negatively charged carboxylates. […] Overall, targeting DCLK1 inhibited the proliferation of HCT116, indicating the importance of DCLK1 in tumour growth.
A 96-well plate (3599, Corning, USA) was inoculated with 100 μL of complete medium containing 10 000 cells, and the experimental, control, and blank groups were established. Three parallel wells were used per concentration. After 10 h, media from the experimental and control groups were replaced with a complete medium containing the indicated concentration of the compound. Cells were incubated for 72 h before 10 μL of CCK8 reagent (CA1210, Solarbio, China) was added to each well and incubated for 1 h. The absorbance at 450 nm was measured with a microplate reader (Tecan, Switzerland). The IC50 was determined using GraphPad Prism 8 and nonlinear regression curve fitting.

SMILES | Selectivity (IC50 of DCLK1/IC50 of LRRK2) (DCLK1) | Selectivity (DCLK1 activity/LRRK2 activity) (DCLK1) | pIC50 (DCLK1) | activity at 1 µM (DCLK1) [%] | pIC50 (LRRK2) | activity at 1 µM (LRRK2) [%] | melting point [°C] | pIC50 (HCT116)
CCOc1cc(N2CCN(C[C@@]3(O)OC[C@@H](O)[C@@H](O)[C@@H]3O)CC2)ccc1Nc1ncc2c(n1)N(C)c1ccccc1C(=O)N2C [Compound D7, 2-((2-Ethoxy-4-(4-(((2R,3S,4R,5R)-2,3,4,5-tetrahydroxytetrahydro-2H-pyran-2-yl)methyl)piperazin-1-yl)phenyl)amino)-5,11-dimethyl-5,11-dihydro-6H-benzo[e]pyrimido[5,4-b][1,4]diazepin-6-one] | 0.30 | 0.29 | 7.34 | 6 | 6.81 | 21 | 126 to 127 | 4.98
COc1cc(N2CCC(OC)CC2)ccc1Nc1ncc2c(n1)N(C)c1ccccc1C(=O)N2C [Compound D12, 2-((2-Methoxy-4-(4-methoxypiperidin-1-yl)phenyl)amino)-5,11-dimethyl-5,11-dihydro-6H-benzo[e]pyrimido[5,4-b][1,4]diazepin-6-one] | 0.47 | 0.50 | 7.33 | 5 | 7.00 | 10 | 179 to 180 | 4.99
COc1cc(N2CCCCC2)ccc1Nc1ncc2c(n1)N(C)c1ccccc1C(=O)N2C [Compound D11, 2-((2-Methoxy-4-(piperidin-1-yl)phenyl)amino)-5,11-dimethyl-5,11-dihydro-6H-benzo[e]pyrimido[5,4-b][1,4]diazepin-6-one] | 0.38 | 0.61 | 7.00 | 11 | 6.58 | 18 | 166 to 167 | 4.94
CCOc1cc(N2CCSCC2)ccc1Nc1ncc2c(n1)N(C)c1ccccc1C(=O)N2C [Compound D4, 2-((2-Ethoxy-4-thiomorpholinophenyl)amino)-5,11-dimethyl-5,11-dihydro-6H-benzo[e]pyrimido[5,4-b][1,4]diazepin-6-one] | 0.64 | 0.55 | 6.57 | 18 | 6.37 | 33 | 190 to 191 | 4.54
CCOc1cc(N2CCS(=O)(=O)CC2)ccc1Nc1ncc2c(n1)N(C)c1ccccc1C(=O)N2C [Compound D6, 2-((4-(1,1-Dioxidothiomorpholino)-2-ethoxyphenyl)amino)-5,11-dimethyl-5,11-dihydro-6H-benzo[e]pyrimido[5,4-b][1,4]diazepin-6-one] | 0.38 | 0.47 | 7.13 | 9 | 6.71 | 19 | 157 to 158 | 4.92
COc1cc(NC(=O)CCCCCSC(C)=O)ccc1Nc1ncc2c(n1)N(C)c1ccccc1C(=O)N2C [Compound D8, S-(6-((4-((5,11-dimethyl-6-oxo-6,11-dihydro-5H-benzo[e]pyrimido[5,4-b][1,4]diazepin-2-yl)amino)-3-methoxyphenyl)amino)-6-oxohexyl) ethanethioate] | 0.18 | 0.36 | 7.40 | 8 | 6.64 | 22 | 159 to 160 | 4.94
COc1cc(NC(=O)CC(=O)O)ccc1Nc1ncc2c(n1)N(C)c1ccccc1C(=O)N2C [Compound D1, 3-((4-((5,11-Dimethyl-6-oxo-6,11-dihydro-5H-benzo[e]pyrimido[5,4-b][1,4]diazepin-2-yl)amino)-3-methoxyphenyl)amino)-3-oxopropanoic acid] | <0.05 | 0.13 | 7.33 | 7 | < 6.00 | 56 | 187 to 188 | < 4.00

Continued by rising pIC50 (DCLK1), values first:

Selectivity (IC50 of DCLK1/IC50 of LRRK2) (DCLK1) | Selectivity (DCLK1 activity/LRRK2 activity) (DCLK1) | pIC50 (DCLK1) | activity at 1 µM (DCLK1) [%] | pIC50 (LRRK2) | activity at 1 µM (LRRK2) [%] | melting point [°C] | SMILES | pIC50 (HCT116)
<0.37 | 0.37 | 6.44 | 19 | < 6.00 | 51 | 166 to 167 | CCOc1cc(N2CCC(O)CC2)ccc1Nc1ncc2c(n1)N(C)c1ccc(F)cc1C(=O)N2C [Compound A6, 2-((2-Ethoxy-4-(4-hydroxypiperidin-1-yl)phenyl)amino)-8-fluoro-5,11-dimethyl-5,11-dihydro-6H-benzo[e]pyrimido[5,4-b][1,4]diazepin-6-one] | 4.61
<0.34 | 0.59 | 6.47 | 20 | < 6.00 | 34 | 159 to 160 | CCOc1cc(N2CCC(C(=O)O)CC2)ccc1Nc1ncc2c(n1)N(C)c1ccccc1C(=O)N2C [Compound D3, 1-(4-((5,11-Dimethyl-6-oxo-6,11-dihydro-5H-benzo[e]pyrimido[5,4-b][1,4]diazepin-2-yl)amino)-3-ethoxyphenyl)piperidine-4-carboxylic acid] | 4.67
<0.34 | 0.34 | 6.47 | 17 | < 6.00 | 50 | 174 to 175 | CCOc1cc(N2CCC(O)CC2)ccc1Nc1ncc2c(n1)N(C)c1cccc(F)c1C(=O)N2C [Compound A9, 2-((2-Ethoxy-4-(4-hydroxypiperidin-1-yl)phenyl)amino)-7-fluoro-5,11-dimethyl-5,11-dihydro-6H-benzo[e]pyrimido[5,4-b][1,4]diazepin-6-one] | 4.69
0.46 | 0.57 | 6.84 | 12 | 6.49 | 21 | 163 to 164 | CCOc1cc(N2CC[S+]([O-])CC2)ccc1Nc1ncc2c(n1)N(C)c1ccccc1C(=O)N2C [Compound D5, 2-((2-ethoxy-4-(1-Oxidothiomorpholino)phenyl)amino)-5,11-dimethyl-5,11-dihydro-6H-benzo[e]pyrimido[5,4-b][1,4]diazepin-6-one] | 4.97
0.58 | 0.44 | 7.28 | 4 | 7.05 | 9 | 162 to 163 | COc1cc(N2CCC(C)(O)CC2)ccc1Nc1ncc2c(n1)N(C)c1ccccc1C(=O)N2C [Compound D15, 2-((4-(4-Hydroxy-4-methylpiperidin-1-yl)-2-methoxyphenyl)amino)-5,11-dimethyl-5,11-dihydro-6H-benzo[e]pyrimido[5,4-b][1,4]diazepin-6-one] | 5.01
